According to patent US20230002346A1, “NEW COMPOUNDS AND METHODS” (BenevolentAl Bio Limited, priority 2019, published 2023):

Experiment: Brain to plasma (B:P) ratio in rat
Assay type: in vivo, Sprague Dawley Rats
Details: male, Sprague Dawley, po, p.o. 3.0 mg/kg, 30% HPBC in water, timepoints averaged 0.5-4 h
Procedure: Male Sprague Dawley Rats 300-350 g (Charles River, UK) were group housed, n=3, under a 12 h light/dark cycle with food and water available ad libitum. At 17:00 on the day prior to dosing all food was removed. On the day of dosing animals were weighed, tail marked and dosed via oral gavage with compound at 3 mg/kg in a volume of 5 mL/kg. Animals were culled at 30 min, 1 h and 4 h post dose via intra-peritoneal administration of pentobarbital. Post mortem blood was withdrawn via cardiac puncture, and briefly stored in K2 EDTA blood tubes on ice before being spun at 14,000 g for 4 min at 4° C. Plasma was withdrawn into a 96 well plate, placed on dry ice and stored at −80° C. Brains were quickly dissected and placed on dry ice before storage at −80° C. Bioanalysis of plasma and brain samples is performed as detailed below. Methods were prepared with guidance from industry standard documents.^i,ii […] Calibration lines are prepared in control male Sprague-Dawley Rat plasma at known concentrations in the range of 1-10000 ng/mL by spiking 2.5 μL of calibration spiking solution into 25 μL control plasma. Experimental samples are thawed to RT and 25 μL aliquots are extracted alongside the calibration lines using protein precipitation (agitation for at least 5 min at RT with 400 μL of MeCN containing 25 ng/mL tolbutamide as an internal standard). Protein precipitates are separated from the extracted test compound by centrifugation at 4000 rpm for 5 min, 4° C. […] Samples are analysed by UPLC-MS/MS on either an API6500 QTrap or Waters 30 TQS mass spectrometer using previously optimised analytical MRM (multiple reaction monitoring) methods, specific to the test compound. The concentration of test compound in isolated samples is determined following analysis of the samples against the two replicates of the calibration line, injected before and after the sample set with an appropriate regression and weighting used. Only samples within 20% of the expected test concentration are included in the calibration line and any samples that fall outside of the limits of the calibration line will be deemed to be less than or above the limit of quantification (LLoQ/ALoQ). […] Calibration lines are prepared in control male Sprague-Dawley Rat brain homogenate at known concentrations in the range of 3-30000 ng/g by spiking 2.5 μL of calibration spiking solution into 25 μL control homogenate. To prepare control and experimental brain homogenates, brains are thawed, weighed and a volume of diluent added (water) in the ratio of 2 mL per gram of brain. Homogenisation of brains is performed by bead-beater homogenisation using Precellys Evolution and CK14 7 mL small ceramic bead homogenisation tubes. Aliquots of 25 μL experimental sample are extracted alongside the calibration lines using protein precipitation (agitation for at least 5 min at RT with 400 μL of MeCN containing 25 ng/mL tolbutamide as an internal standard). Protein precipitates are separated from the extracted test compound by centrifugation at 4000 rpm for 5 min, 4° C. […] Samples are analysed by UPLC-MS/MS on either an API6500 QTrap or Waters TQS mass spectrometer using previously optimised analytical MRM (multiple reaction monitoring) methods, specific to the test compound. The concentration of test compound in isolated samples is determined following analysis of the samples against the two replicates of the calibration line, injected before and after the sample set with an appropriate regression and weighting used. Only samples within 20% of the expected test concentration are included in the calibration line and any samples that fall outside of the limits of the calibration line will be deemed to be less than or above the limit of quantification (LLoQ/ALoQ). Total brain to plasma (B:P) ratios were calculated by dividing the concentration in the brain by the concentration in plasma for each timepoint. The mean brain to plasma ratio is calculated by averaging these brain to plasma ratios across certain timepoints. […]

- Kp: 1.91
Compound: O=C(Nc1ccc(OC(F)(F)Cl)cc1)c1ccc(=O)n(-c2ccccc2)c1 [Example 56, N-[4-[Chloro(difluoro)methoxy]phenyl]-6-oxo-1-phenyl-pyridine-3-carboxamide]
